In patent publication US7696186B2, “7,9-substituted tetracycline compounds” (Paratek Pharmaceuticals, Inc., priority 2001, dated 2010):

Tests used:
Experiment in all cases: In Vitro Minimum Inhibitory Concentration (MIC) Assay
Type in all cases: cell-based
Parameters in all cases: key: compounds which were good inhibitors of growth of a particular bacteria are indicated with *; compounds which were very good inhibitors of a particular bacteria are indicated with **; compounds with were particularly good inhibitors of a particular bacteria are indicated with ***
Details in all cases: CAMHB, 35° C., approximately 18 hr
[1] = system: E. coli
Experimental: (§1) In Vitro Minimum Inhibitory Concentration (MIC) Assay
(§2) The following assay is used to determine the efficacy of minocycline compounds against common bacteria. 2 mg of each compound is dissolved in 100 μl of DMSO. The solution is then added to cation-adjusted Mueller Hinton broth (CAMHB), which results in a final compound concentration of 200 μg per ml. The minocycline compound solutions are diluted to 50 μL volumes, with a test compound concentration of 0.098 μg/ml. Optical density (OD) determinations are made from fresh log-phase broth cultures of the test strains. Dilutions are made to achieve a final cell density of 1×10^6 CFU/ml. At OD=1, cell densities for different genera should be approximately:
(§3) 50 μl of the cell suspensions are added to each well of microtiter plates. The final cell density should be approximately 5×10^5 CFU/ml. These plates are incubated at 35° C. in an ambient air incubator for approximately 18 hr. The plates are read with a microplate reader and are visually inspected when necessary. The MIC is defined as the lowest concentration of the minocycline compound that inhibits growth. Compounds of the invention indicate good inhibition of growth.
(§4) In Table 2, compounds which were good inhibitors of growth of a particular bacteria are indicated with *, compounds which were very good inhibitors of a particular bacteria are indicated with **, and compounds with were particularly good inhibitors of a particular bacteria are indicated with ***.

[2] = system: E. hirae
Experimental: as §1, §2, §3, §4

[3] = system: S. aureus
Experimental: as §1, §2, §3, §4

E. coli (inhibition of growth, MIC assay) [1] | E. hirae (inhibition of growth, MIC assay) [2] | S. aureus (inhibition of growth, MIC assay) [3] | Structure (SMILES)
* | ** | *** | CN(C)[C@@H]1C(O)=C(C(N)=O)C(=O)[C@@]2(O)C(O)=C3C(=O)c4c(O)c(CNC(=O)CCl)cc(-c5ccccc5)c4C[C@H]3C[C@@H]12 [HN]
* | ** | ** | CN(C)[C@@H]1C(O)=C(C(N)=O)C(=O)[C@@]2(O)C(O)=C3C(=O)c4c(O)c(CNC(=O)C5CCCO5)cc(-c5ccc(F)cc5)c4C[C@H]3C[C@@H]12 (stereo partly drawn) [HR]
* | * | * | CC#Cc1cc(C#CC)c2c(c1O)C(=O)C1=C(O)[C@]3(O)C(=O)C(C(N)=O)=C(O)[C@@H](N(C)C)[C@@H]3C[C@@H]1C2 [IA]
* | ** | * | CCc1cc(CNC(=O)c2cccnc2)c(O)c2c1C[C@H]1C[C@H]3[C@H](N(C)C)C(O)=C(C(N)=O)C(=O)[C@@]3(O)C(O)=C1C2=O [HF]
* | ** | ** | CN(C)[C@@H]1C(O)=C(C(N)=O)C(=O)[C@@]2(O)C(O)=C3C(=O)c4c(O)c(CN)cc(-c5cccc([N+](=O)[O-])c5)c4C[C@H]3C[C@@H]12 [HJ]
* | *** | *** | CCc1cc(C#CC2=CCCCC2)c(O)c2c1C[C@H]1C[C@H]3[C@H](N(C)C)C(O)=C(C(N)=O)C(=O)[C@@]3(O)C(O)=C1C2=O [Compound HO, 7-Ethyl-9-Cyclohexenylethynyl-Sancycline]
** | *** | *** | CCc1cc(CC)c2c(c1O)C(=O)C1=C(O)[C@]3(O)C(=O)C(C(N)=O)=C(O)[C@@H](N(C)C)[C@@H]3C[C@@H]1C2 [HV]
*** | *** | ** | CCCCCCc1cc(CN)c(O)c2c1C[C@H]1C[C@H]3[C@H](N(C)C)C(O)=C(C(N)=O)C(=O)[C@@]3(O)C(O)=C1C2=O [HS]
* | * | ** | CCc1cc(CN)c(O)c2c1C[C@H]1C[C@H]3[C@H](N(C)C)C(O)=C(C(N)=O)C(=O)[C@@]3(O)C(O)=C1C2=O [HG]
* | *** | ** | CN(C)[C@@H]1C(O)=C(C(N)=O)C(=O)[C@@]2(O)C(O)=C3C(=O)c4c(O)c(C(C)(C)C)cc(-c5cccc([N+](=O)[O-])c5)c4C[C@H]3C[C@@H]12 [HP]
* | ** | ** | CC(=O)NCc1cc(-c2ccc(F)cc2)c2c(c1O)C(=O)C1=C(O)[C@]3(O)C(=O)C(C(N)=O)=C(O)[C@@H](N(C)C)[C@@H]3C[C@@H]1C2 [HT]
** | ** | ** | CN(C)[C@@H]1C(O)=C(C(N)=O)C(=O)[C@@]2(O)C(O)=C3C(=O)c4c(O)c(CN)cc(-c5ccc(F)cc5)c4C[C@H]3C[C@@H]12 [HM]
* | ** | ** | CN(C)[C@@H]1C(O)=C(C(N)=O)C(=O)[C@@]2(O)C(O)=C3C(=O)c4c(O)c(CN5C(=O)c6ccccc6C5=O)cc(CN5C(=O)c6ccccc6C5=O)c4C[C@H]3C[C@@H]12 [HB]
* | ** | *** | CN(C)[C@@H]1C(O)=C(C(N)=O)C(=O)[C@@]2(O)C(O)=C3C(=O)c4c(O)c(-c5ccc6c(c5)OCO6)cc(-c5ccc6c(c5)OCO6)c4C[C@H]3C[C@@H]12 [Compound HZ, 7,9-Bis(3,4-Methylenedioxyphenyl)-Sancycline]
* | ** | ** | CN(C)[C@@H]1C(O)=C(C(N)=O)C(=O)[C@@]2(O)C(O)=C3C(=O)c4c(O)c(CN5C(=O)c6ccccc6C5=O)cc(-c5cccc([N+](=O)[O-])c5)c4C[C@H]3C[C@@H]12 [HK]
* | ** | ** | CN(C)[C@@H]1C(O)=C(C(N)=O)C(=O)[C@@]2(O)C(O)=C3C(=O)c4c(O)c(CNC(=O)c5cccnc5)cc(CCC5CCCCC5)c4C[C@H]3C[C@@H]12 [HI]
* | * | * | COc1ccc(C#Cc2cc(C#Cc3ccc(OC)cc3)c3c(c2O)C(=O)C2=C(O)[C@]4(O)C(=O)C(C(N)=O)=C(O)[C@@H](N(C)C)[C@@H]4C[C@@H]2C3)cc1 [HC]
* | *** | ** | CCCCCc1cc(CN2C(=O)c3ccccc3C2=O)c(O)c2c1C[C@H]1C[C@H]3[C@H](N(C)C)C(O)=C(C(N)=O)C(=O)[C@@]3(O)C(O)=C1C2=O [HU]
** | ** | ** | CCCc1cc(CN)c(O)c2c1C[C@H]1C[C@H]3[C@H](N(C)C)C(O)=C(C(N)=O)C(=O)[C@@]3(O)C(O)=C1C2=O [HL]
* | ** | ** | CCc1cc(C#Cc2ccc(OC)cc2)c(O)c2c1C[C@H]1C[C@H]3[C@H](N(C)C)C(O)=C(C(N)=O)C(=O)[C@@]3(O)C(O)=C1C2=O [HW]
* | *** | ** | CC(=O)NCc1cc(-c2ccccc2)c2c(c1O)C(=O)C1=C(O)[C@]3(O)C(=O)C(C(N)=O)=C(O)[C@@H](N(C)C)[C@@H]3C[C@@H]1C2 [HX]
** | ** | ** | CCCCc1cc(CN)c(O)c2c1C[C@H]1C[C@H]3[C@H](N(C)C)C(O)=C(C(N)=O)C(=O)[C@@]3(O)C(O)=C1C2=O [HQ]
* | ** | ** | CN(C)[C@@H]1C(O)=C(C(N)=O)C(=O)[C@@]2(O)C(O)=C3C(=O)c4c(O)c(CN)cc(-c5ccccc5)c4C[C@H]3C[C@@H]12 [HE]
